Values belong to the compound of their own block, whether it stands above or below them.
Key:
[1] = Membrane cholesterol domain peak intensity, x-ray diffraction of POPC/cholesterol membranes (Example 9); details: 1.5:1 C/P mole ratio; for % change Vs control / Relative Cholesterol Domain Preak Intensity: drug-to-phospholipid mole ratio 1:30; for Relative Cholesterol Domain Preak Intensity: POPC and cholesterol
Protocol: The fatty acid stock solutions were stored at −20° C. until use. […] Samples were shell-dried under nitrogen gas and placed under vacuum for 3 hours to remove residual solvent at room temperature. After desiccation, each sample was resuspended in saline buffer (0.5 mM HEPES, 154 mM NaCl, pH 7.3) to yield a final phospholipid concentration of 2.5 mg/mL. Lipid suspensions were then vortexed for 3 minutes at ambient temperature to form MLVs. Membrane lipid vesicles were oriented for x-ray diffraction analysis as described by others (e.g., Herbette et al., Biophys. […] Briefly, a 100 μL aliquot of each MLV preparation (containing 250 μg MLV) was transferred to a Lucite® sedimentation cell fitted with an aluminum foil substrate designed to collect MLVs into a single membrane pellet upon centrifugation. […] After centrifugal orientation, sample supernatants were aspirated and aluminum foil substrates, each supporting a single membrane pellet, were removed from the sedimentation cells. Sample pellets were dried for 5-10 minutes at ambient conditions, mounted onto curved glass supports, and placed in hermetically-sealed, brass or glass containers (for immediate analysis or temporary storage, respectively). All x-ray diffraction experiments were conducted at 20° C., 74% relative humidity. The latter was established by exposing membrane samples to saturated solutions of L-(+)-tartaric acid (K2C4H4O6.½H2O) for at least 1 hour prior to experimental analysis. Oriented membrane samples were aligned at grazing incidence with respect to a collimated, mono-chromatic CuKα x-ray beam (Kα1 and Kα2 unresolved; λ=1.54 Å) produced by a Rigaku Rotaflex RU-200, high-brilliance microfocus generator (Rigaku-MSC, The Woodlands, Tex.) as previously described (Mason et al., Biophys. J., vol. 55(4), pages 769-778 (1989)). The samples were initially subjected to x-ray diffraction analysis at least 12 hours after formation of the membrane pellets and retested for up to several days. Analytical x-rays were generated by electron bombardment of a rotating copper anode and are filtered through a thin nickel foil to provide monochromatic radiation (λ=1.54 Å). Collimation of the x-ray beam was achieved using a single Franks mirror. Diffraction data were collected on a one-dimensional, position-sensitive electron detector (Hecus X-ray Systems, Graz, Austria) at a sample-to-detector distance of 150 mm from the sample site. The d-space for any given membrane multi bilayer is a measurement of the unit cell periodicity of the membrane lipid bilayer (e.g., the distance from the center of one lipid bilayer to the next including surface hydration), and is calculated from Bragg's Law, h λ=2 d sin θ, where h is the diffraction order, λ is the wavelength of the x-ray radiation (1.54 Å), d is the membrane lipid bilayer unit cell periodicity, and θ is the Bragg angle equal to one-half the angle between the incident beam and scattered beam. […] Routines written in Origin 8.6 (OriginLab Corporation, Northampton, Mass.) were used to determine total peak area (associated with all diffraction peaks in a given pattern) against which the second-order cholesterol domain peak was normalized. The raw data collected in this study was normalized using internal. Data were presented as mean+S.E.M. for (N) separate samples or treatment groups. Differences between groups were analyzed using the two-tailed, Student's t-test (for comparisons between only two groups) or ANOVA followed by Dunnett or Student-Newman-Keuls multiple comparisons post-hoc analysis (for comparisons between three or more groups). Alpha error was set to 0.05 in this study.

human LDL = assay: Copper-induced oxidation of unfractionated LDL, TBARS (Example 7); assay type: biochemical; details: for effect on unfractionated LDL oxidation as compared to vehicle-treated controls: all agents at 10 μM, 1 hour (FIG. 25)
Protocol: An experiment to study the antioxidant effect of EPA in LDL and small dense […] performed. […] Fenofibrate, gemfibrozil, and niacin were purchased from Sigma-Aldrich. […] Vitamin E was also incubated with sample aliquots as a positive control.

HUVECs = assay: NO release from HUVECs incubated with agent-treated oxidized sdLDL (Example 12); assay type: cell-based, human; details: for reduction of NO release as compared to vehicle-treated, oxidized sdLDL: oxidized sdLDL pretreated with agent at 10.0 μM
Protocol: All samples, with the exception of non-oxidized sdLDL controls, were subjected to copper-induced oxidation for 1 hour. Human umbilical vein endothelial cells (HUVECs) were incubated with the various sdLDL samples, stimulated with calcium, and monitored for nitric oxide (NO) and peroxynitrite (ONOO^−) release using nanosensor technology.

[2] = system: sdLDL isolated from human subjects under conditions of hyperglycemia; assay: Glucose-induced sdLDL oxidation, MDA/TBARS (Example 10); assay type: biochemical; details: 200 mg/dL glucose; for effect on glucose-induced sdLDL oxidation: 10.0 μM
Protocol: Vitamin E (α-tocopherol) purchased from Sigma-Aldrich was prepared in ethanol at 1.0 mM (E=[…] at 294 nm) prior to experimental use. Test compounds were further diluted in ethanol or aqueous buffer as needed. Phosphate Buffered Saline (PBS) purchased from Sigma-Aldrich was prepared in double distilled water at 10 mM (138 mM NaCl, 2.7 mM KCl, pH 7.4). […] Lipid oxidation was measured by the colorimetric detection of malondialdehyde (MDA), a marker of oxidative stress. Data were presented as mean±SD for (n) separate samples or experiments. Differences between groups were analyzed using the unpaired, two-tailed Student's t-test (for comparisons between only two groups) or ANOVA followed by Student-Newman-Keuls multiple comparisons post hoc analysis (for comparisons between three or more groups).

[3] = EPA to phospholipid mole ratio 1:60
[4] = EPA to phospholipid mole ratio 1:90

IC50 ([2]; read-out: IC50, inhibition of glucose-induced sdLDL oxidation): < 1 µM
Structure (SMILES): CC/C=C\C/C=C\C/C=C\C/C=C\C/C=C\CCCC(=O)O [EPA, cis-5,8,11,14,17-eicosapentaenoic acid]
reduction in cholesterol domain peaks as compared to vehicle treatment ([1]; 1:30): 65%
% Change (vs. Control) [1, 3]: −30.2 ± 27.9%
Relative Cholesterol Domain Peak Intensity [1, 3]: 29.5 ± 10.9
% Change (vs. Control) [1, 4]: −15.0 ± 12.6%
Relative Cholesterol Domain Peak Intensity [1, 4]: 36.0 ± 3.1
% change Vs control [1]: −65.5 ± 17.1%
Relative Cholesterol Domain Preak Intensity [1]: 14.6±5
effect on unfractionated LDL oxidation, dose dependence (human LDL; 1 hour): significantly and reproducibly inhibited unfractionated LDL oxidation in a dose-dependent manner
inhibition of TBARS formation compared to vehicle-treated control (human LDL; highest treatment concentration, 1 hour): > 90%
increase in NO release as compared to non-oxidized sdLDL treatment (HUVECs; EPA-treated, oxidized sdLDL): 23%
increase in NO release as compared to oxidized LDL treatment (HUVECs; EPA-treated, oxidized sdLDL): 53%
HUVEC NO release (HUVECs; exposure to EPA-treated (10.0 μM), oxidized sdLDL): 931 ± 59 nM
inhibition of sdLDL oxidation as compared to vehicle controls ([2]; highest concentration tested): 94%
sdLDL oxidation (formation of MDA) ([2]; highest concentration tested, unit of the source corrected): 0.2 ± 0.1 µM

Structure (SMILES): Cc1ccc(C)c(OCCCC(C)(C)C(=O)O)c1 [gemfibrozil]
effect on cholesterol domains (in words) ([1]; 1:30): no significant changes in cholesterol domain size
% change Vs control [1]: 11%
% change Vs control ([1]; listed as Gemfib): 10.9 ± 43.3%
Relative Cholesterol Domain Preak Intensity [1]: 46.9±12.6
Relative Cholesterol Domain Preak Intensity ([1]; listed as Gemfib): 46.9 ± 12.6
effect on unfractionated LDL oxidation as compared to vehicle-treated controls (human LDL): no significant effect on unfractionated LDL oxidation
reduction of NO release as compared to vehicle-treated, oxidized sdLDL (HUVECs): 33%
effect on glucose-induced sdLDL oxidation [2]: did not inhibit glucose-induced sdLDL oxidation

Structure (SMILES): O=C(O)c1cccnc1 [niacin, nicotinic acid]
effect on cholesterol domains (in words) ([1]; 1:30): no significant changes in cholesterol domain size
% change Vs control [1]: −35%
% change Vs control ([1]; listed as Niacin): −35.0 ± 30.8%
Relative Cholesterol Domain Preak Intensity [1]: 27.5±12.2
Relative Cholesterol Domain Preak Intensity ([1]; listed as Niacin): 27.5 ± 12.2
effect on unfractionated LDL oxidation as compared to vehicle-treated controls (human LDL): no significant effect on unfractionated LDL oxidation
reduction of NO release as compared to vehicle-treated, oxidized sdLDL (HUVECs): 45%
effect on glucose-induced sdLDL oxidation [2]: did not inhibit glucose-induced sdLDL oxidation

Structure (SMILES): Cc1c(C)c2c(c(C)c1O)CC[C@@](C)(CCC[C@H](C)CCC[C@H](C)CCCC(C)C)O2 [vitamin E, α-tocopherol]
effect on unfractionated LDL oxidation as compared to vehicle-treated controls (human LDL): no significant effect on unfractionated LDL oxidation
effect on glucose-induced sdLDL oxidation [2]: failed to inhibit sdLDL oxidation
increase in sdLDL oxidation as compared to glucose-treated controls [2]: 63%

— patent publication US20190054054A1, “Methods reducing or preventing oxidation of high density lipoprotein (HDL)” (Amarin Pharmaceuticals Ireland Limited, priority 2017, published 2019)
